Test [1] concerns S. aureus ATCC51650 and CI11. The test is described as follows: Dose-dependence of clindamycin in combination with phage J-Sa36 (OD600). It counts as cell-based, Staphylococcus aureus. The conditions noted are these: with J-Sa36 MOI=0.2, 24 hours; ⅛th the MIC. As for the experimental part: (§1) Initial screening was performed in 100 μl in 96 well plates, with follow up experiments in 10 mL culture volume. S. aureus strains were grown on 1.5% Tryptone Soya Agar (TSA) at 37° C. overnight. Single colonies were transferred to Tryptone Soya Broth (TSB) to generate a culture with a starting concentration of 5×10^5 CFU/ml. […] Antibiotics were added to the cultures at ½ MIC (according to the pretest MIC of antibiotics) if required. Optical density (OD) readings at 600 nm were recorded at 24 hours to assess the growth of bacteria co-inoculated with phage unless otherwise specified. Uninoculated, fresh media was included as a sterility control.

Test [2] relates to S. aureus C330. The test is described as follows: Clindamycin MIC assay (Example 2). In kind it is cell-based. The following applies: Staphylococcus aureus; strain C330. As for the experimental part: (§2) The MIC of clindamycin against the S. aureus strains was assessed using the broth microdilution technique as previously described (see Wiegand et al., 2008 supra). Results were interpreted as follows: Sensitive: ≤0.2 μg/mL; Intermediate: 0.4 μg/ml; Resistant: >0.6 μg/mL. The S. aureus strains sensitive to clindamycin were selected for further tests. The MIC was performed three times.

Test [3] relates to S. aureus C43. As to the kind of experiment: Clindamycin MIC assay (Example 2). In kind it is cell-based. The conditions noted are these: Staphylococcus aureus; strain C43. As for the experimental part:
as §2

In test [4] the test system is S. aureus ATCC25923. The test is described as follows: Clindamycin MIC assay (Example 2). In kind it is cell-based. The following applies: Staphylococcus aureus; strain ATCC25923. As for the experimental part:
as §2

Test [5] deals with S. aureus C319. As to the kind of experiment: Clindamycin MIC assay (Example 2). The conditions noted are these: Staphylococcus aureus; strain C319. It counts as cell-based. As for the experimental part: as §2
Test [6] relates to S. aureus C285. The test is described as follows: Clindamycin MIC assay (Example 2). In kind it is cell-based. The conditions noted are these: Staphylococcus aureus; strain C285. The procedure: as §2
The test system of test [7] is S. aureus CI3. The test is described as follows: Antibiotic sensitivity of the isolate selected for in vivo experiments. It counts as cell-based, Staphylococcus aureus. The procedure: (§3) The minimum inhibitory concentration (MIC) of amoxicillin, vancomycin, erythromycin, clindamycin and azithromycin against the S. aureus strains was assessed using the broth microdilution technique as previously described (Wiegand I et al., Nature protocols 3 (2): 163-175, 2008) and breakpoints defined according to CSLI guidelines. Clinical strains resistant to at least one antibiotic in three or more antibiotic categories were defined as multidrug resistant (MDR).
A fresh culture of CI3 on 1.5% TSA plates was prepared two days before inoculation. A single colony was resuspended in 0.9% saline (ca. 2 ml) to turbidity reading 0.5 McFarland Units and then a 1 in 100 dilution in TSB was cultured overnight one day before the in vivo experiment. CI3 pellets were harvested and resuspended in fresh TSB to reach 2.5×10^9 Colony Forming Units (CFU)/ml.

The subject of test [8] is S. aureus CI11. The test is described as follows: Phage replication by titer. In kind it is cell-based, Staphylococcus aureus. The following applies: 48 hours incubation. As for the experimental part: (§4) Phage titers were determined against S. aureus RN4220 (ATCC) using the double layer spot assay technique. Briefly, 100 μl of a S. aureus overnight culture was mixed with 4 mL of 0.4% TSA and poured onto a 1.5% TSA plate. […] After the plates were incubated in a humidified incubator at 37° C. overnight, plaques were counted, counts were averaged, and titers of the filtrate were calculated based on the dilution.
(§5) A 100 μl sample was taken from an S. aureus culture (10 ml in TSB) after 0 and 48 hours following treatment with clindamycin, phage or a phage clindamycin co-incubation. The sample was treated with 25 μl of chloroform, shaken for 30 seconds, centrifuged (3000 rpm, 5 minutes, room temperature) and the supernatant used to determine phage titers against the same isolate. Phage titers in plaque forming units [PFU]/mL were recorded initially and at 48 hours to assess for phage replication. To allow for phage resistant (phage insensitive) bacterial isolates to show plaques, clindamycin was added to the soft agar overlay.

Test [9] has as its system S. aureus CI8. The test is described as follows: Phage replication by titer. It counts as cell-based, Staphylococcus aureus. The following applies: 48 hours incubation. As for the experimental part: as §4, §5
Test [10] relates to S. aureus ATCC51650. The test is described as follows: Phage replication by titer. It counts as cell-based, Staphylococcus aureus. The conditions noted are these: 48 hours incubation. As for the experimental part:
as §4, §5

For test [11], the system named is S. aureus CI3. The test is described as follows: Phage combined with ½ MIC antibiotics on planktonic S. aureus (OD600), CI3. The following applies: ½ MIC antibiotic, phage MOI=0.2, 24 hours. It counts as cell-based, Staphylococcus aureus. As for the experimental part:
as §1

Test [12] concerns S. aureus ATCC51650 and CI11. The test is described as follows: Time-dependent interaction of phage J-Sa36 and clindamycin (OD600). It counts as cell-based, Staphylococcus aureus. The following applies: ½ MIC clindamycin only or J-Sa36 (MOI 0.2) only. As for the experimental part:
OD600 readings were taken at addition of either phage or clindamycin and following the 24-hour incubation.
The total amount of phage J-Sa36 added into the culture at different time points was adjusted to maintain MOI=0.2, according to the number of bacteria measured via CFU counts at each time point.

The test system of test [13] is S. aureus CI11. The test is described as follows: Clindamycin MIC, broth microdilution. In kind it is cell-based. The following applies: Staphylococcus aureus. The procedure: as §3
The test system of test [14] is S. aureus ATCC51650. The test is described as follows: Clindamycin MIC, broth microdilution. It counts as cell-based. The conditions noted are these: Staphylococcus aureus. As for the experimental part:
as §3
In general terms: Broth dilution looks for growth in wells or tubes with falling amounts of substance.

This note sets out measurements from patent US20260286316A1, “METHOD OF PRODUCTION OF MODIFIED PHAGE AND METHOD OF TREATMENT USING SAME” (priority 2022, published 2026).

As a reminder, the MIC is the lowest concentration found to suppress growth. Read a high MIC as weaker potency.

Values after ≈ are worked out from the molar mass of the structure shown.

In the case of `CCC[C@@H]1C[C@@H](C(=O)N[C@@H]([C@H]2O[C@H](SC)[C@H](O)[C@@H](O)[C@H]2O)[C@H](C)Cl)N(C)C1` [clindamycin], the “lowest effective concentration of clindamycin required to facilitate phage J-Sa36 killing” value in test [1] came out at 0.025 µg/mL. For the same compound, the MIC in test [2], in test [3], in test [4], in test [5], in test [6] and in test [13] was 0.2 µg/mL (≈ 0.471 µM) each time. In [14], this compound gave an MIC of 0.2 µg/mL (≈ 0.471 µM). In addition, the “antibiotic sensitivity of the isolate” value in [7] is recorded as “sensitive”. The “plaques from supernatant after ½ MIC clindamycin only” value in test [8], in [9] and in test [10] was “produced no plaques” in each case. Moreover, the “synergistic effects with phage J-Sa36, Sa83 and Sa87 on bacterial viability (OD600)” value in test [11] is “synergistic effects”. For the same compound, the “bacterial viability at 24 hours, single agent” value in [12] is reported as “did not significantly affect bacterial viability”.
